Laboratory results from patent publication US8546401B2, “5,6-disubstituted oxindole-derivatives and use thereof for treating vasopressin-dependent diseases” (AbbVie Deutschland GmbH & Co. KG, priority 2007, dated 2013).

Assays:
[1] = molecular target: T1, human vasopressin V1b receptor (Homo sapiens, UniProt P47901); test: Vasopressin V1b receptor binding assay; conditions: CHO-K1 membranes, 3H-AVP displacement
T1 construct: expressed in transfected cells; host or cells: CHO-K1 (cell line hV1b_3H2_CHO), membrane preparation
T1 sequence (P47901 1-424): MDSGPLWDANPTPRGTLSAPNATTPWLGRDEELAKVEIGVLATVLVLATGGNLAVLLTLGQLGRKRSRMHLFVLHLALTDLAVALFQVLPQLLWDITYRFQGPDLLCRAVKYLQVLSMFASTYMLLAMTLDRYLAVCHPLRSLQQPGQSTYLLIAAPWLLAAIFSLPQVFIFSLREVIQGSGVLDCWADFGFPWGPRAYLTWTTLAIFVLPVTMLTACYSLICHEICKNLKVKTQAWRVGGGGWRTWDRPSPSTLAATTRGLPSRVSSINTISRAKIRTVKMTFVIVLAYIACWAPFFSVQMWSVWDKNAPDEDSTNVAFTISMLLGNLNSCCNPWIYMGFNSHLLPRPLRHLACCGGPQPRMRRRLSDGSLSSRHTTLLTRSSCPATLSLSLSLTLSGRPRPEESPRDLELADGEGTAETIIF
Method in brief: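 Membranes (50 μg/ml protein) from CHO-K1 cells stably expressing human V1b were incubated with 1.5 nM ^3H-AVP in 50 mM Tris, 10 mM MgCl2, 0.1% BSA, pH 7.4, for 60 min at room temperature, 2% DMSO final. Bound ligand measured after filtration; Ki derived by nonlinear regression using Kd 0.4 nM.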

[2] = molecular target: T2, human vasopressin V1a receptor (Homo sapiens, UniProt P37288); test: Vasopressin V1a receptor binding assay; conditions: selectivity quotient, human receptors
T2 construct: expressed in transfected cells; host or cells: CHO-K1 (cell line hV1a_5_CHO), membrane preparation
T2 sequence (P37288 whole entry): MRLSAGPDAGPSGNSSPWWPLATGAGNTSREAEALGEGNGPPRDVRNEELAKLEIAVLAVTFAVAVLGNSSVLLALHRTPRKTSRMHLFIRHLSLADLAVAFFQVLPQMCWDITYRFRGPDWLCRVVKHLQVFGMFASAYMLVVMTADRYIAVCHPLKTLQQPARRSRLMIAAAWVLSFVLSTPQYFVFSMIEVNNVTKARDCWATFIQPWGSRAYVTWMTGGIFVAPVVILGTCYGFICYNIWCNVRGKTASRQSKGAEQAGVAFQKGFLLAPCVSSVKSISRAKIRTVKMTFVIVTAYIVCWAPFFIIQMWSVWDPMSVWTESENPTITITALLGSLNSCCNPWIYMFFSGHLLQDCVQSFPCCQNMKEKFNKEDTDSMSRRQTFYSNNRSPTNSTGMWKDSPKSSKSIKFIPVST
Method in brief: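 Membranes from CHO-K1 cells stably expressing the receptor (hV1a_5_CHO; 20 μg/ml protein) were incubated 60 min at room temperature with 0.04 nM ^125I-AVP and increasing test compound in 50 mM Tris, 10 mM MgCl2, 0.1% BSA, pH 7.4. Nonspecific binding was defined with 1 μM AVP and read by filtration and scintillation. Ki came from nonlinear regression using Kd 1.33 nM.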

human oxytocin receptors = molecular target: T3, human oxytocin receptors (Homo sapiens, UniProt P30559); test: Oxytocin receptor binding assay; conditions: selectivity quotient
T3 construct: expressed in transfected cells; host or cells: HEK-293, transient expression; lysed and homogenized cells
T3 sequence (P30559 1-389): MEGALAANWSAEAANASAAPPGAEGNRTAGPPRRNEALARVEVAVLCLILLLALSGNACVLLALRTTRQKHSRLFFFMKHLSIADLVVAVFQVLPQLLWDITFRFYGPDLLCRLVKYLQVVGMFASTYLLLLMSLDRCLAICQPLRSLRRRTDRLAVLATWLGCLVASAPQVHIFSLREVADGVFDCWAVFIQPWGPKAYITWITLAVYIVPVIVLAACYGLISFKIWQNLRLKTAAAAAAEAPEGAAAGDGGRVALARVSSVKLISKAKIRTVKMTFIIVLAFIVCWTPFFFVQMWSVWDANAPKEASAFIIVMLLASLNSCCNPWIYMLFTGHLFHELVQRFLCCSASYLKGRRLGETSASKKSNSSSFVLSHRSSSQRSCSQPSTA
Method in brief: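 Membranes from HEK-293 cells transiently expressing human oxytocin receptor, incubated with 3-4 nM ^3H-oxytocin in 50 mM Tris, 10 mM MgCl2, 0.1% BSA, pH 7.4; nonspecific binding with 10^−6 M oxytocin. Filtration and scintillation counting; Ki by nonlinear regression using Kd 7.6 nM.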

SMILES | Ki [1] [nM] | Ki(h − V1a)/Ki(h − V1b)* [2] | Ki(h − OT)/Ki(h − V1b)* (human oxytocin receptors)
CCOc1ncccc1C1(NC(=O)N2CCC(N3CCN(C)CC3)CC2)C(=O)N(S(=O)(=O)c2ccc(OC)cc2OC)c2cc(F)c(F)cc21 (stereo not drawn) [Example 35, 4-(4-Methylpiperazin-1-yl)piperidine-1-[1-(2,4-dimethoxyphenylsulfonyl)-3-(2-ethoxy-pyridin-3-yl)-5,6-difluoro-2-oxo-2,3-dihydro-1H-indol-3-yl]carboxamide] | 1 to 10 | + (10-<25) | + (10-<25)
CCOc1ncccc1C1(OC(=O)N2CCN(C3CCN(C)CC3)CC2)C(=O)N(S(=O)(=O)c2ccc(OC)cc2OC)c2cc(F)c(C#N)cc21 (stereo not drawn) [Example 38, 5-Cyano-1-(2,4-dimethoxybenzenesulfonyl)-3-(2-ethoxypyridin-3-yl)-6-fluoro-2-oxo-2,3-dihydro-1H-indol-3-yl 4-(1-methylpiperidin-4-yl)piperazine-1-carboxylate] | < 1 | +++ (>75) | +++ (>75)
CCOc1ncccc1C1(OC(=O)N2CCN(C3CCN(C)CC3)CC2)C(=O)N(S(=O)(=O)c2ccc(OC)cc2)c2cc(F)c(C#N)cc21 (stereo not drawn) [Example 39, 5-Cyano-3-(2-ethoxypyridin-3-yl)-6-fluoro-1-(4-methoxyphenylsulfonyl)-2-oxo-2,3-dihydro-1H-indol-3-yl 4-(1-methylpiperidin-4-yl)piperazine-1-carboxylate] | < 1 | ++ (25-75) | +++ (>75)
CCOc1ncccc1C1(OC(=O)N2CCN(C3CCN(C)CC3)CC2)C(=O)N(S(=O)(=O)c2ccccc2)c2cc(F)c(C#N)cc21 (stereo not drawn) [Example 40, 1-Phenylsulfonyl-5-cyano-3-(2-ethoxypyridin-3-yl)-6-fluoro-2-oxo-2,3-dihydro-1H-indol-3-yl 4-(1-methylpiperidin-4-yl)piperazine-1-carboxylate] | 1 to 10 | + (10-<25) | +++ (>75)
CCOc1ncccc1C1(OC(=O)N2CCN(C3CCN(C)CC3)CC2)C(=O)N(S(=O)(=O)c2ccc(OC)cc2OC)c2cc(F)c(Cl)cc21 (stereo not drawn) [Example 41, 5-Chloro-1-(2,4-dimethoxyphenylsulfonyl)-3-(2-ethoxypyridin-3-yl)-6-fluoro-2-oxo-2,3-dihydro-1H-indol-3-yl 4-(1-methylpiperidin-4-yl)piperazine-1-carboxylate] | < 1 | + (10-<25) | + (10-<25)
CCOc1ncccc1C1(OC(=O)N2CCN(C3CCN(C)CC3)CC2)C(=O)N(S(=O)(=O)c2ccc(OC)cc2)c2cc(F)c(Cl)cc21 (stereo not drawn) [Example 42, 5-Chloro-3-(2-ethoxypyridin-3-yl)-6-fluoro-1-(4-methoxyphenylsulfonyl)-2-oxo-2,3-dihydro-1H-indol-3-yl 4-(1-methylpiperidin-4-yl)piperazine-1-carboxylate] | < 1 | + (10-<25) | + (10-<25)
CCOc1ncccc1C1(OC(=O)N2CCN(C3CCN(C)CC3)CC2)C(=O)N(S(=O)(=O)c2ccccc2OC)c2cc(F)c(Cl)cc21 (stereo not drawn) [Example 43, 5-Chloro-3-(2-ethoxypyridin-3-yl)-6-fluoro-1-(2-methoxyphenylsulfonyl)-2-oxo-2,3-dihydro-1H-indol-3-yl 4-(1-methylpiperidin-4-yl)piperazine-1-carboxylate] | < 1 | ++ (25-75) | +++ (>75)
CCOc1ncccc1C1(OC(=O)N2CCN(C3CCN(C)CC3)CC2)C(=O)N(S(=O)(=O)c2ccccc2)c2cc(F)c(Cl)cc21 (stereo not drawn) [Example 45, 1-Phenylsulfonyl-5-chloro-3-(2-ethoxypyridin-3-yl)-6-fluoro-2-oxo-2,3-dihydro-1H-indol-3-yl 4-(1-methylpiperidin-4-yl)piperazine-1-carboxylate] | 1 to 10 | + (10-<25) | +++ (>75)
CCOc1ncccc1C1(OC(=O)N2CCN(C3CCN(C)CC3)CC2)C(=O)N(S(=O)(=O)c2ccc(OC)cc2OC)c2cc(Cl)c(F)cc21 (stereo not drawn) [Example 46, 6-Chloro-1-(2,4-dimethoxyphenylsulfonyl)-3-(2-ethoxypyridin-3-yl)-5-fluoro-2-oxo-2,3-dihydro-1H-indol-3-yl 4-(1-methylpiperidin-4-yl)piperazine-1-carboxylate] | 1 to 10 | ++ (25-75) | + (10-<25)
CCOc1ncccc1C1(OC(=O)N2CCN(C3CCN(C)CC3)CC2)C(=O)N(S(=O)(=O)c2ccccc2OC)c2cc(Cl)c(F)cc21 (stereo not drawn) [Example 50, 6-Chloro-3-(2-ethoxypyridin-3-yl)-5-fluoro-1-(2-methoxyphenylsulfonyl)-2-oxo-2,3-dihydro-1H-indol-3-yl 4-(1-methylpiperidin-4-yl)piperazine-1-carboxylate] | 10 to 100 | + (10-<25) | ++ (25-75)
CCOc1ncccc1C1(OC(=O)N2CCN(C3CCN(C)CC3)CC2)C(=O)N(S(=O)(=O)c2ccc(OC)cc2OC)c2cc(F)c(F)cc21 (stereo not drawn) [Example 51, 1-(2,4-dimethoxyphenylsulfonyl)-3-(2-ethoxypyridin-3-yl)-5,6-difluoro-2-oxo-2,3-dihydro-1H-indol-3-yl 4-(1-methylpiperidin-4-yl)piperazine-1-carboxylate] | 1 to 10 | +++ (>75) | ++ (25-75)
CCOc1ncccc1C1(OC(=O)N2CCN(C3CCN(C)CC3)CC2)C(=O)N(S(=O)(=O)c2ccc(OC)cc2)c2cc(F)c(F)cc21 (stereo not drawn) [Example 52, 3-(2-Ethoxypyridin-3-yl)-5,6-difluoro-1-(4-methoxyphenylsulfonyl)-2-oxo-2,3-dihydro-1H-indol-3-yl 4-(1-methylpiperidin-4-yl)piperazine-1-carboxylate] | 1 to 10 | ++ (25-75) | + (10-<25)
CCOc1ncccc1C1(OC(=O)N2CCN(C3CCN(C)CC3)CC2)C(=O)N(S(=O)(=O)c2ccccc2OC)c2cc(F)c(F)cc21 (stereo not drawn) [Example 53, 3-(2-Ethoxypyridin-3-yl)-5,6-difluoro-1-(2-methoxyphenylsulfonyl)-2-oxo-2,3-dihydro-1H-indol-3-yl 4-(1-methylpiperidin-4-yl)piperazine-1-carboxylate] | 1 to 10 | ++ (25-75) | ++ (25-75)
